The results in this text go back to ChEMBL document CHEMBL3576783, “Synthesis and evaluation of 1,2,4-triazolo[1,5-a]pyrimidines as antibacterial agents against Enterococcus faecium” (J Med Chem, 2015).

In brackets after ≈: the same amount, converted by molar mass.

The subject of this test is Enterococcus faecium. In words: microbe, parasite or virus in culture. Conditions: NCTC 7171.
Description: Antibacterial activity against Enterococcus faecium NCTC 7171 assessed as bacterial growth inhibition after 16-20 hrs by broth microdilution method
As for `CCOC(=O)CSc1nc2n(n1)C(c1ccc(N(C)C)cc1)C(C(N)=O)=C(C)N2` (configuration not stated), the MIC was greater than 128 µg/mL.
The figure for `CC1=C(C(=O)Nc2ccccc2)C(c2ccc(C)cc2)n2nc(SCc3ccccc3C)nc2N1` (configuration not stated) is greater than 128 µg/mL; for `CCc1ccc(C2C(C(=O)Nc3ccccc3C)=C(C)Nc3nc(SCc4cccc(OC)c4)nn32)cc1` (configuration not stated) it is greater than 128 µg/mL.
Then `CSc1nc2n(n1)C(c1ccc(N(C)C)cc1)C(C(N)=O)=C(C)N2` (configuration not stated), with greater than 128 µg/mL.
Then `COc1ccc(C2C(C(N)=O)=C(C)Nc3nc(SCc4ccccc4)nn32)cc1` (configuration not stated), with greater than 128 µg/mL.
In turn, `COc1ccc(C2C(C(N)=O)=C(C)Nc3nc(SCc4ccccc4)nn32)cc1OC` (configuration not stated) returned an MIC greater than 128 µg/mL.
The figure for `CCc1cccc(C2C(C(N)=O)=C(C)Nc3nc(SCc4ccccc4)nn32)c1` (configuration not stated) is 16 µg/mL (≈ 39.5 µM); for `CC1=C(C(N)=O)C(c2cccc(OC(C)C)c2)n2nc(SCc3ccccc3)nc2N1` (configuration not stated) it is greater than 128 µg/mL; for `CCOC(=O)C1=C(C)Nc2nc(SCc3ccc(C(=O)O)cc3)nn2C1c1cccs1` (configuration not stated) it is greater than 128 µg/mL.
Then `CC1=C(C(N)=O)C(c2ccc(OC(F)(F)F)cc2)n2nc(SCc3ccccc3)nc2N1` (configuration not stated), with 8 µg/mL (≈ 17.3 µM); and `CC1=C(C(=O)Nc2ccc(C)cc2C)C(c2ccc(Cl)cc2)n2nc(C(=O)OC(C)C)nc2N1` (configuration not stated), with 16 µg/mL (≈ 33.3 µM); and `CC1=C(C(=O)Nc2ccccc2C)C(c2ccc(C)cc2)n2nc(SCc3cccc(C)c3)nc2N1` (configuration not stated), with greater than 128 µg/mL.
Then `COc1ccc(C2C(C(=O)Nc3ccccc3C)=C(C)Nc3nc(SCc4cc(C)ccc4C)nn32)cc1` (configuration not stated), with greater than 128 µg/mL; and `CSc1ccc(CSc2nc3n(n2)C(c2ccc(N(C)C)cc2)C(C(N)=O)=C(C)N3)cc1` (configuration not stated), with greater than 128 µg/mL.
For `CC1=C(C(N)=O)C(c2ccc(N)cc2)n2nc(SCc3ccccc3)nc2N1` (configuration not stated), the MIC was greater than 128 µg/mL.
Then `CN(C)c1ccc(C2C3=C(CCCC3=O)Nc3nc(SCc4ccccc4)nn32)cc1` (configuration not stated), with greater than 128 µg/mL; and `CC1=C(C(N)=O)C(c2ccc([N+](=O)[O-])cc2)n2nc(SCc3ccccc3)nc2N1` (configuration not stated), with 64 µg/mL (≈ 151 µM); and `CC1=C(C(N)=O)C(c2ccc(N(C)C)cc2)n2nc(SCc3ccc(OC(F)(F)F)cc3)nc2N1` (configuration not stated), with greater than 128 µg/mL.
Then `CC1=C(C(=O)Nc2ccc(C)cc2C)C(c2ccc(F)cc2)n2nc(SCc3cccc(C)c3)nc2N1` (configuration not stated), with greater than 128 µg/mL.
In turn, `COC(=O)c1nc2n(n1)C(c1ccc(N(C)C)cc1)C(C(N)=O)=C(C)N2` (configuration not stated) displayed an MIC greater than 128 µg/mL.
Then `CC1=C(C(N)=O)C(c2ccc(N(C)C)cc2)n2nc(SCCNC(=O)OCc3ccccc3)nc2N1` (configuration not stated), with greater than 128 µg/mL.
Then `CC1=C(C(N)=O)C(c2ccc(N(C)C)cc2)n2nc(SCc3ccc(C)cc3)nc2N1` (configuration not stated), with greater than 128 µg/mL.
In the case of `O=C1CCCC2=C1C(c1ccc(Cl)cc1)n1nc(SCc3cccc4ccccc34)nc1N2` (configuration not stated), the MIC is greater than 128 µg/mL.
The figure for `CC1=C(C(N)=O)C(c2ccc(O)cc2)n2nc(SCc3ccccc3)nc2N1` (configuration not stated) is greater than 128 µg/mL; for `CC1=C(C(N)=O)C(c2ccc(N3CCCC3)cc2)n2nc(SCc3ccccc3)nc2N1` (configuration not stated) it is 16 µg/mL (≈ 35.8 µM).
Then `CC1=C(C(N)=O)C(c2ccc(C)cc2)n2nc(SCc3ccccc3)nc2N1` (configuration not stated), with greater than 128 µg/mL; and `CC1=C(C(N)=O)C(c2ccsc2)n2nc(SCc3ccccc3)nc2N1` (configuration not stated), with greater than 128 µg/mL; and `CCOC(=O)c1nc2n(n1)C(c1ccc(N(C)C)cc1)C(C(N)=O)=C(C)N2` (configuration not stated), with greater than 128 µg/mL.
For the compound `CC1=C(C(=O)Nc2ccccc2)C(c2ccc(N(C)C)cc2)n2nc(SCc3ccccc3)nc2N1` (configuration not stated), the MIC is 8 µg/mL (≈ 16.1 µM).
Then `CC1=C(C(N)=O)C(c2ncc[nH]2)n2nc(SCc3ccccc3)nc2N1` (configuration not stated), with 32 µg/mL (≈ 87.1 µM); and `CC1=C(C(N)=O)C(c2ccc(Cl)cc2)n2nc(SCc3ccccc3)nc2N1` (configuration not stated), with greater than 128 µg/mL; and `CC1=C(C(N)=O)C(c2ccc(N(C)C)cc2)n2nc(SCc3ccc(C(=O)O)cc3)nc2N1` (configuration not stated), with greater than 128 µg/mL.
Then `CC1=C(C(N)=O)C(c2ccc(C(=O)O)cc2)n2nc(SCCNC(=O)OCc3ccccc3)nc2N1` (configuration not stated), with greater than 128 µg/mL; and `COc1ccc(C2C(C(N)=O)=C(C)Nc3nc(SCc4ccccc4)nn32)cc1O` (configuration not stated), with greater than 128 µg/mL; and `CC1=C(C(N)=O)C(c2ccncc2)n2nc(SCc3ccccc3)nc2N1` (configuration not stated), with greater than 128 µg/mL.
The figure for `COC(=O)c1ccc(CSc2nc3n(n2)C(c2ccc(N(C)C)cc2)C(C(N)=O)=C(C)N3)cc1` (configuration not stated) is greater than 128 µg/mL; for `CC1=C(C(N)=O)C(c2ccc(N(C)C)cc2)n2nc(SCc3ccc(SC(F)(F)F)cc3)nc2N1` (configuration not stated) it is 8 µg/mL (≈ 15.4 µM); for `CCN(CC)CCOc1ccc(C2C(C(N)=O)=C(C)Nc3nc(SCc4ccccc4)nn32)cc1` (configuration not stated) it is greater than 128 µg/mL.
With `CC1=C(C(N)=O)C(c2ccc(N(C)C)cc2)n2nc(SCc3ccc(C(F)(F)F)cc3)nc2N1` (configuration not stated), the MIC is greater than 128 µg/mL.
The figure for `CC1=C(C(N)=O)C(c2ccc(C(C)C)cc2)n2nc(SCCNC(=O)OCc3ccccc3)nc2N1` (configuration not stated) is greater than 128 µg/mL; for `COc1ccc(C2C3=C(CCCC3=O)Nc3nc(SCc4ccc(F)cc4)nn32)cc1OC` (configuration not stated) it is greater than 128 µg/mL.
The compound `CC1=C(C(N)=O)C(c2cccs2)n2ncnc2N1` (configuration not stated) displayed an MIC greater than 128 µg/mL.
Then `CC1=C(C(N)=O)C(c2ccc(F)cc2)n2nc(SCc3ccccc3)nc2N1` (configuration not stated), with 128 µg/mL (≈ 324 µM).
As to `CC1=C(C(N)=O)C(c2cccc(OC(F)(F)F)c2)n2nc(SCc3ccccc3)nc2N1` (configuration not stated), the MIC came out at 16 µg/mL (≈ 34.7 µM).
The figure for `CSc1ccc(C2C(C(N)=O)=C(C)Nc3nc(SCc4ccccc4)nn32)cc1` (configuration not stated) is greater than 128 µg/mL; for `CCc1ccc(C2C(C(=O)Nc3ccccc3)=C(C)Nc3nc(SCc4cccc(OC)c4)nn32)cc1` (configuration not stated) it is greater than 128 µg/mL; for `CCOC(=O)C1=C(C)Nc2nc(SCc3ccccc3)nn2C1c1ccc(N(C)C)cc1` (configuration not stated) it is greater than 128 µg/mL.
With `CC1=C(C(N)=O)C(c2ccccc2C(F)(F)F)n2nc(SCc3ccccc3)nc2N1` (configuration not stated), the MIC is greater than 128 µg/mL.
Turning to `CCN(CC)c1ccc(C2C(C(N)=O)=C(C)Nc3nc(SCc4ccccc4)nn32)cc1` (configuration not stated), the MIC was found to be 8 µg/mL (≈ 17.8 µM).
As to `CC1=C(C(N)=O)C(c2ccc(N(C)C)cc2)n2nc(Sc3ccccn3)nc2N1` (configuration not stated), the MIC is greater than 128 µg/mL.
The figure for `CC1=C(C(N)=O)C(c2c[nH]c3ccccc23)n2nc(SCc3ccccc3)nc2N1` (configuration not stated) is greater than 128 µg/mL; for `CC1=C(C(N)=O)C(c2ccc(C#N)cc2)n2nc(SCc3ccccc3)nc2N1` (configuration not stated) it is 16 µg/mL (≈ 39.8 µM); for `COc1ccc(C2C3=C(CCCC3=O)Nc3nc(SCc4ccc(C(=O)O)cc4)nn32)cc1` (configuration not stated) it is greater than 128 µg/mL.
Then `COc1ccc(C2C(C(=O)Nc3ccc(C)cc3C)=C(C)Nc3nc(SCc4cccc(C)c4)nn32)cc1` (configuration not stated), with greater than 128 µg/mL; and `CNC(=O)C1=C(C)Nc2nc(SCc3ccccc3)nn2C1c1ccc(N(C)C)cc1` (configuration not stated), with 8 µg/mL (≈ 18.4 µM); and `CC1=C(C(N)=O)C(c2ccc(N(C)C)cc2)n2nc(SCC(N)=O)nc2N1` (configuration not stated), with greater than 128 µg/mL.
Then `CC1=C(C(N)=O)C(c2ccc(N(C)C)cc2)n2nc(SCc3ccncc3)nc2N1` (configuration not stated), with 128 µg/mL (≈ 304 µM); and `CC(=O)Nc1ccc(C2C(C(N)=O)=C(C)Nc3nc(SCc4ccccc4)nn32)cc1` (configuration not stated), with 128 µg/mL (≈ 295 µM); and `CC1=C(C(N)=O)C(c2ccc(N(C)C)cc2)n2ncnc2N1` (configuration not stated), with greater than 128 µg/mL.
`CC1=C(C(N)=O)C(c2cccs2)n2nc(SCc3ccccc3)nc2N1` (configuration not stated) had an MIC greater than 128 µg/mL.
Then `COc1ccc(CSc2nc3n(n2)C(c2ccc(N(C)C)cc2)C(C(N)=O)=C(C)N3)cc1` (configuration not stated), with greater than 128 µg/mL; and `CCOc1ccccc1C1C2=C(CCCC2=O)Nc2nc(SCc3ccc(C(=O)O)cc3)nn21` (configuration not stated), with greater than 128 µg/mL.
